# Results from paper PMC4763312, “Comparative study of curcumin and curcumin formulated in a solid dispersion: Evaluation of their antigenotoxic effects” (Genetics and Molecular Biology, 2015).
# How the values were obtained:
# Type in all cases: in vivo, Wistar rats
# kidney cells [1] = assay: Alkaline comet assay, kidney cells
# Procedure: (§1) These were administered via gavage at 72 h, 48 h, 24h or 30 min before the intraperitoneal administration of saline solution or the antitumoral agent cDDP, which was used as a damage-inducing agent. The body weights of the rats were recorded daily. At 24 h after cDDP administration (5th day), the animals were euthanized for sample collection. […] The same animals were used in genotoxicity assays (micronucleus test and comet assay) and biochemical tests (GSH and TBARS), as well as for the expression analysis of the Tp53 gene. The alkaline version of the comet assay was performed according to protocols proposed by [Singh et al. (1988)] and [Tice et al. (2000)], with minor modifications (the slides were stained with GelRed, 1:10,000, Biotium-USA). To check for possible cytotoxic effects of the treatments, cell viability was determined via the Trypan blue dye exclusion method. […] Following lysis, the slides were placed in a horizontal electrophoresis unit containing 300 mM NaOH and 1 mM EDTA (pH > 13) for 20 min at an electric field strength of 0.78 V/cm (25 V and 300 mA). The slides were neutralized and stained with Gel Red (1:10,000). A total of 100 nucleoids per animal (two slides of 50 nucleoids each) were analysed at a 400x magnification using a fluorescence microscope (Axiostar, Zeiss, Germany) equipped with a 515-560 nm excitation filter, a 590 nm barrier filter and an integrated digital camera. Tail intensity (% tail DNA) was evaluated using the Comet Assay IV software (Perceptive Instruments, Suffolk, UK).
# [2] = system: reduced glutathione (GSH) in kidney tissue; assay: GSH level in the kidney; conditions: for GSH: kidney
# Procedure: These were administered via gavage at 72 h, 48 h, 24h or 30 min before the intraperitoneal administration of saline solution or the antitumoral agent cDDP, which was used as a damage-inducing agent. The body weights of the rats were recorded daily. At 24 h after cDDP administration (5th day), the animals were euthanized for sample collection. […] The same animals were used in genotoxicity assays (micronucleus test and comet assay) and biochemical tests (GSH and TBARS), as well as for the expression analysis of the Tp53 gene. GSH concentrations in kidney tissue were determined according to method described by [Sedlak and Lindsay (1968)]. […] A 2.0 mL volume of Tris-EDTA buffer (0.2 M, pH 8.9) and 0.1 mL of 5,5 ‘-dithio-bis-2-nitrobenzoic acid (DTNB) in 0.01 M methanol were added to a 0.5 mL aliquot of the supernatant. The samples were maintained at room temperature for 15 min and then read at 412 nm (RayLeigh UV-1601 spectrophotometer). Standard curves were prepared using α-cysteine, and results were expressed as nmol GSH/g protein. The quantification of total proteins was done at 650 nm (RayLeigh UV-1601 spectrophotometer) using Lowry’s method ([Hartree, 1972]).
# [3] = system: thiobarbituric-acid-reactive substances (TBARS) in kidney tissue; assay: TBARS level in the kidney; conditions: for TBARS: kidney
# Procedure: These were administered via gavage at 72 h, 48 h, 24h or 30 min before the intraperitoneal administration of saline solution or the antitumoral agent cDDP, which was used as a damage-inducing agent. The body weights of the rats were recorded daily. At 24 h after cDDP administration (5th day), the animals were euthanized for sample collection. […] The same animals were used in genotoxicity assays (micronucleus test and comet assay) and biochemical tests (GSH and TBARS), as well as for the expression analysis of the Tp53 gene. TBARS measurements in kidney tissue were performed according to [Buege and Aust (1978)]. A 0.5 mL aliquot of the homogenate was added to 1 mL of thiobarbituric acid solution (containing 15% trichloroacetic acid and 0.25 M HCl) to a final concentration of […]. This mixture was warmed in a water bath for 15 min and centrifuged for 20 min at 180 x g. The absorbance of the supernatant was determined at 535 nm (UV-VisB582 Micronal spectrophotometer), and the results were expressed as nmol TBARS/mg protein. […] The quantification of total proteins was done at 650 nm (RayLeigh UV-1601 spectrophotometer) using Lowry’s method ([Hartree, 1972]).
# bone marrow erythrocytes = assay: Micronucleus test in bone marrow
# Procedure: These were administered via gavage at 72 h, 48 h, 24h or 30 min before the intraperitoneal administration of saline solution or the antitumoral agent cDDP, which was used as a damage-inducing agent. The body weights of the rats were recorded daily. At 24 h after cDDP administration (5th day), the animals were euthanized for sample collection. […] The same animals were used in genotoxicity assays (micronucleus test and comet assay) and biochemical tests (GSH and TBARS), as well as for the expression analysis of the Tp53 gene. The micronucleus test was performed according to the protocol described by [Schmid (1975)]. Bone marrow cells were harvested from rat femurs, mixed with fetal bovine serum, homogenized and centrifuged, and the pellet was resuspended for slide preparations. The slides were then fixed, stained with Giemsa solution and coded. Three slides were produced for each animal. Coded slides were scored under 1000X magnification using a light microscope (Zeiss).
# [4] = Variation in body mass and relative mass of the kidney
# Procedure: Male Wistar albino rats, at 5-6 weeks of age and weighing approximately 160 g were obtained from the Animal Facility of the Ribeirão Preto Campus of the University of São Paulo. The animals were divided into 12 groups of six for each treatment. The experimental protocols applied in this study were approved by the Local Ethics Committee for Animal Use (CEUA) of Ribeirão Preto, Brazil, Register No.08.1.1417.53.2. […] These were administered via gavage at 72 h, 48 h, 24h or 30 min before the intraperitoneal administration of saline solution or the antitumoral agent cDDP, which was used as a damage-inducing agent. The body weights of the rats were recorded daily. At 24 h after cDDP administration (5th day), the animals were euthanized for sample collection. […] The same animals were used in genotoxicity assays (micronucleus test and comet assay) and biochemical tests (GSH and TBARS), as well as for the expression analysis of the Tp53 gene.
# peripheral blood cells [5] = assay: Alkaline comet assay, peripheral blood cells
# Procedure: as §1
# [6] = Cell viability by Trypan blue dye exclusion, peripheral blood cells; conditions: male, Wistar, rat, peripheral blood cells, oral, % in relation to saline solution group
# Procedure: (§2) These were administered via gavage at 72 h, 48 h, 24h or 30 min before the intraperitoneal administration of saline solution or the antitumoral agent cDDP, which was used as a damage-inducing agent. The alkaline version of the comet assay was performed according to protocols proposed by [Singh et al. (1988)] and [Tice et al. (2000)], with minor modifications (the slides were stained with GelRed, 1:10,000, Biotium-USA). To check for possible cytotoxic effects of the treatments, cell viability was determined via the Trypan blue dye exclusion method. […] Following lysis, the slides were placed in a horizontal electrophoresis unit containing 300 mM NaOH and 1 mM EDTA (pH > 13) for 20 min at an electric field strength of 0.78 V/cm (25 V and 300 mA). The slides were neutralized and stained with Gel Red (1:10,000). A total of 100 nucleoids per animal (two slides of 50 nucleoids each) were analysed at a 400x magnification using a fluorescence microscope (Axiostar, Zeiss, Germany) equipped with a 515-560 nm excitation filter, a 590 nm barrier filter and an integrated digital camera. Tail intensity (% tail DNA) was evaluated using the Comet Assay IV software (Perceptive Instruments, Suffolk, UK).
# Tp53 mRNA = assay: Quantification of Tp53 mRNA in kidney tissue (RT-qPCR); conditions: 50 mg/kg b.w. together with cDDP 6 mg/kg b.w.
# Procedure: These were administered via gavage at 72 h, 48 h, 24h or 30 min before the intraperitoneal administration of saline solution or the antitumoral agent cDDP, which was used as a damage-inducing agent. Total RNA was extracted from kidney tissue using the SV Total Isolation System kit (Promega, Madison, WI, USA), according the manufacturer's instructions. […] The extracted RNA was converted to cDNA using the SuperScriptTM III kit (Invitrogen, Carlsbad, CA, USA), and RT-qPCR was performed in a CFX96 Real-Time PCR Detection System (Bio-Rad, CA, USA) using the Bio-Rad Real-Time PCR system with ABsoluteTM QPCR SYBR1 Green Mix (Invitrogen, Carlsbad, CA, USA), where fluorescence detection was performed following each annealing/extension cycle. The following reference genes were tested for suitability: b-actin (b-actin-forward: […] reverse: […] (GAPDH-forward: […]-reverse: [NT] and […]-forward: […]-reverse [NT] Based on stability, we selected b-actin as the endogenous control gene for RT-qPCR. Gene-specific primers for Tp53 (Tp53-forward: [NT]; Tp53-reverse: […] Louis, MO, USA). RT-qPCR efficiencies for Tp53 and b-actin were satisfactory, and the relative expression of Tp53 mRNA was normalized to the amount of b-actin using the method of relative 2^-ΔΔCt quantification described by [Livak and Schmittgen (2001)].
# [7] = Cell viability by Trypan blue dye exclusion, kidney cells; conditions: male, Wistar, rat, kidney cells, oral, % in relation to saline solution group
# Procedure: as §2
# peripheral blood cells [8] = assay: Cell viability by Trypan blue dye exclusion, peripheral blood cells; conditions: % in relation to saline solution group; GLA gavage + cDDP 6 mg/kg b.w. i.p.
# Procedure: as §2
# kidney cells [9] = assay: Cell viability by Trypan blue dye exclusion, kidney cells; conditions: % in relation to saline solution group; GLA gavage + cDDP 6 mg/kg b.w. i.p.
# Procedure: as §2
# [10] = 50 mg/kg b.w. gavage x4 + cDDP 6 mg/kg b.w. i.p.
# [11] = 50 mg/kg b.w. gavage x4 + i.p. saline
# [12] = 50 mg/kg b.w. gavage x4 + cDDP 6 mg/kg b.w. i.p., 24 h
# [13] = GLA gavage + cDDP 6 mg/kg b.w. i.p.
# [14] = GLA gavage + cDDP 6 mg/kg b.w. i.p., 24 h
smiles,measurement,setting,value
"COc1cc(C=CC(=O)CC(=O)C=Cc2ccc(O)c(OC)c2)ccc1O [CMN, 1,7-bis[4-hydroxy 3-methoxyphenyl]-1,6-heptadiene-3,5-dione]","% tail DNA, kidney",kidney cells [1]; [10],4.0 ± 0.8%
same,"% tail DNA, kidney",kidney cells [1]; [11],5.5 ± 2.8%
same,"Comet assay, in association with cDDP compared to cDDP-only group (in words)",kidney cells [1]; with cDDP 6 mg/kg b.w.,did not induce significant alterations
same,GSH concentration in renal tissue (in words),[2]; administered alone,did not alter
same,GSH,[2]; [12],17.0 ± 1.4 nmol/mg protein
same,GSH,[2]; [11],14.4 ± 1.2 nmol/mg protein
same,TBARS concentration in renal tissue (in words),[3]; administered alone,did not alter
same,TBARS,[3]; [12],0.222 ± 0.064 nmol/mg protein
same,TBARS,[3]; [11],0.236 ± 0.018 nmol/mg protein
same,"TBARS levels, administered together with cDDP (in words)","[3]; with cDDP 6 mg/kg b.w., p > 0.05 vs saline solution group",able to maintain the TBARS levels observed in the saline solution group
same,"Frequency of micronucleated polychromatic erythrocytes, MNPCEs/1000 PCEs",bone marrow erythrocytes; [10],7.08 ± 3.04 ^# MNPCEs/1000 PCEs
same,"Frequency of micronucleated polychromatic erythrocytes, MNPCEs/1000 PCEs",bone marrow erythrocytes; [11],1.91 ± 1.27 MNPCEs/1000 PCEs
same,Formation of cDDP-induced micronuclei (in words),"bone marrow erythrocytes; CMN SD 5, 25 and 50 mg/kg b.w., unmodified CMN 50 mg/kg b.w., p < 0.05",significantly reduced
same,"Body weight variation, interval 2 (day 4 to 5)",[4]; [10],0.1 ± 2.5 g
same,Kidney/body weight,[4]; [10],0.90 ± 0.06%
same,"Body weight variation, interval 1 (days 1 to 4)",[4]; 50 mg/kg b.w. gavage x4 + cDDP 6 mg/kg b.w. i.p. group,31.8 ± 4.7 g
same,"Body weight variation, interval 1 (days 1 to 4)",[4]; [11],31.7 ± 6.6 g
same,"Body weight variation, interval 2 (day 4 to 5)",[4]; [11],8.2 ± 2.4 g
same,Kidney/body weight,[4]; [11],0.96 ± 0.05%
same,Reduction of body weight gain triggered by cDDP (in words),[4]; combined application with cDDP,did not alter the reduction of body weight gain
same,"% tail DNA, peripheral blood",peripheral blood cells [5]; [10],2.1 ± 0.6%
same,"% tail DNA, peripheral blood",peripheral blood cells [5]; [11],3.2 ± 0.9%
same,viability at 24 h,[6]; [10],99.2 ± 0.7%
same,viability at 24 h,[6]; [11],98.7 ± 0.5%
same,Tp53 expression compared to saline solution group,Tp53 mRNA,up-regulated
same,viability at 24 h,[7]; [10],88.5 ± 2.2%
same,viability at 24 h,[7]; [11],89 ± 2.3%
"[NH2][Pt]([NH2])([Cl])[Cl] [cDDP, Cisplatin]","% tail DNA, kidney",kidney cells [1]; [13],3.8 ± 0.7 %
same,GSH,[2]; [14],18.5 ± 0.6 nmol/mg protein
same,TBARS,[3]; [14],0.286 ± 0.014 nmol/mg protein
same,"Frequency of micronucleated polychromatic erythrocytes, MNPCEs/1000 PCEs",bone marrow erythrocytes; [13],12.75 ± 3.32 MNPCEs/1000 PCEs
same,PCE/(PCE + NCE) ratio,"bone marrow erythrocytes; in 500 erythrocytes, GLA gavage + cDDP 6 mg/kg b.w. i.p.",44.8 ± 4.9%
same,"Body weight variation, interval 2 (day 4 to 5)",[4]; [13],0.8 ± 2.2 g
same,Kidney/body weight,[4]; [13],1.02 ± 0.11%
same,"Body weight variation, interval 1 (days 1 to 4)",[4]; GLA gavage + cDDP 6 mg/kg b.w. i.p. group,27.5 ± 6.1 g
same,"% tail DNA, peripheral blood",peripheral blood cells [5]; [13],2.2 ± 0.8%
same,"Cell viability, peripheral blood",peripheral blood cells [8],98.8 ± 0.7%
same,"Cell viability, kidney",kidney cells [9],86.5 ± 3.1%
